Results: PubChem BioAssay AID330 (DTP/NCI, 2004)
Where “and” joins values, the source holds several entries; their conditions need not be identical. Equal entries are not always repeated. Inconclusive results and toxic doses are left out.

Test system: P388 leukemia ip, CD2F1 mice, survival T/C
Assay: NCI In Vivo Anticancer Drug Screen. Data for tumor model P388 Leukemia (intraperitoneal) in CD2F1 (CDF1) mice
Details: endpoint: median survival time, higher = longer survival
In short: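 Mice carrying the transplanted tumor received test compound or vehicle. Survival was recorded in each group, and the value is the treated-group measurement divided by that of the vehicle-treated control group.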

[1] = dose: 25.0 mg/kg/injection, schedule: Q01DX005 (ip), vehicle: saline
[2] = dose: 50.0 mg/kg/injection, schedule: Q01DX005 (ip), vehicle: saline
[3] = dose: 100.0 mg/kg/injection, schedule: Q01DX005 (ip), vehicle: saline
[4] = dose: 200.0 mg/kg/injection, schedule: Q01DX005 (ip), vehicle: saline
[5] = dose: 200.0 mg/kg/injection, schedule: Q01DX009 (ip), vehicle: saline
[6] = dose: 400.0 mg/kg/injection, schedule: Q01DX009 (ip), vehicle: saline
[7] = dose: 6.25 mg/kg/injection, schedule: Q01DX009 (ip), vehicle: saline with Tween-80
[8] = dose: 12.5 mg/kg/injection, schedule: Q01DX009 (ip), vehicle: saline with Tween-80

Structure (SMILES): Nc1ncn(C2OC(CO)C(O)C2O)c(=O)n1 (stereo unspecified)
- T/C (dose: 0.19 mg/kg/injection, schedule: Q01DX009 (ip), vehicle: saline with Tween-80): 122 % of control
- T/C (dose: 0.38 mg/kg/injection, schedule: Q01DX009 (ip), vehicle: saline with Tween-80): 154 % of control
- T/C (dose: 0.75 mg/kg/injection, schedule: Q01DX009 (ip), vehicle: Klucel (hydroxypropylcellulose) (HPC)): 163 % of control
- T/C (dose: 0.75 mg/kg/injection, schedule: Q01DX009 (ip), vehicle: saline with Tween-80): 181 % of control
- T/C (dose: 0.75 mg/kg/injection, schedule: Q01DX009 (ip), vehicle: saline): 166 % of control and 172 % of control and 173 % of control
- T/C (dose: 1.0 mg/kg/injection, schedule: Q01DX005 (ip), vehicle: saline): 172 % of control
- T/C (dose: 1.0 mg/kg/injection, schedule: Q01DX005 (ip), vehicle: water): 150 % of control
- T/C (dose: 1.5 mg/kg/injection, schedule: Q01DX009 (ip), vehicle: Klucel (hydroxypropylcellulose) (HPC)): 190 % of control
- T/C (dose: 1.5 mg/kg/injection, schedule: Q01DX009 (ip), vehicle: saline with Tween-80): 195 % of control
- T/C (dose: 1.5 mg/kg/injection, schedule: Q01DX009 (ip), vehicle: saline): 171 % of control and 185 % of control
- T/C (dose: 1.56 mg/kg/injection, schedule: Q01DX009 (ip), vehicle: saline): 224 % of control
- T/C (dose: 2.0 mg/kg/injection, schedule: Q01DX005 (ip), vehicle: water): 174 % of control
- T/C (dose: 2.0 mg/kg/injection, schedule: Q01DX009 (ip), vehicle: saline): 209 % of control and 210 % of control
- T/C (dose: 2.59 mg/kg/injection, schedule: Q04DX003 (ip), vehicle: saline): 162 % of control
- T/C (dose: 2.7 mg/kg/injection, schedule: Q01DX009 (ip), vehicle: saline): 233 % of control
- T/C (dose: 3.0 mg/kg/injection, schedule: Q01DX009 (ip), vehicle: Klucel (hydroxypropylcellulose) (HPC)): 245 % of control
- T/C (dose: 3.13 mg/kg/injection, schedule: Q01DX009 (ip), vehicle: saline): 262 % of control
- T/C (dose: 4.0 mg/kg/injection, schedule: Q01DX005 (ip), vehicle: water): 215 % of control
- T/C (dose: 4.0 mg/kg/injection, schedule: Q01DX009 (ip), vehicle: saline): 245 % of control and 265 % of control
- T/C (dose: 4.32 mg/kg/injection, schedule: Q04DX003 (ip), vehicle: saline): 178 % of control
- T/C (dose: 4.5 mg/kg/injection, schedule: Q01DX009 (ip), vehicle: saline): 282 % of control
- T/C (dose: 6.0 mg/kg/injection, schedule: Q01DX009 (ip), vehicle: Klucel (hydroxypropylcellulose) (HPC)): 95 % of control
- T/C (dose: 7.2 mg/kg/injection, schedule: Q04DX003 (ip), vehicle: saline): 200 % of control
- T/C (dose: 8.0 mg/kg/injection, schedule: Q01DX005 (ip), vehicle: saline): 252 % of control and 256 % of control and 290 % of control
- T/C (dose: 8.0 mg/kg/injection, schedule: Q01DX005 (ip), vehicle: water): 66 % of control
- T/C (dose: 8.64 mg/kg/injection, schedule: Q04DX002 (ip), vehicle: saline): 160 % of control
- T/C (dose: 12.0 mg/kg/injection, schedule: Q04DX003 (ip), vehicle: saline): 247 % of control
- T/C (dose: 12.5 mg/kg/injection, schedule: Q01DX005 (ip), vehicle: saline): 162 % of control
- T/C (dose: 12.5 mg/kg/injection, schedule: Q01DX009 (ip), vehicle: saline): 196 % of control
- T/C (dose: 14.4 mg/kg/injection, schedule: Q04DX002 (ip), vehicle: saline): 175 % of control
- T/C (dose: 16.0 mg/kg/injection, schedule: Q01DX005 (ip), vehicle: saline): 273 % of control
- T/C (dose: 20.0 mg/kg/injection, schedule: Q01DX009 (ip), vehicle: saline): 223 % of control
- T/C (dose: 20.0 mg/kg/injection, schedule: Q04DX003 (ip), vehicle: saline): 279 % of control
- T/C (dose: 24.0 mg/kg/injection, schedule: Q04DX002 (ip), vehicle: saline): 200 % of control
- T/C [1]: 176 % of control
- T/C (dose: 25.0 mg/kg/injection, schedule: Q01DX009 (ip), vehicle: saline): 196 % of control
- T/C (dose: 33.0 mg/kg/injection, schedule: Q01DX009 (ip), vehicle: saline): 233 % of control
- T/C (dose: 40.0 mg/kg/injection, schedule: Q04DX002 (ip), vehicle: saline): 217 % of control
- T/C (dose: 44.0 mg/kg/injection, schedule: Q01DX005 (ip), vehicle: saline): 178 % of control
- T/C (dose: 49.0 mg/kg/injection, schedule: Q01DX001 (ip), vehicle: saline): 165 % of control
- T/C [2]: 189 % of control
- T/C (dose: 50.0 mg/kg/injection, schedule: Q01DX009 (ip), vehicle: saline): 215 % of control
- T/C (dose: 67.0 mg/kg/injection, schedule: Q01DX005 (ip), vehicle: saline): 181 % of control
- T/C [3]: 182 % of control and 196 % of control
- T/C (dose: 110.0 mg/kg/injection, schedule: Q01DX001 (ip), vehicle: saline): 100 % of control
- T/C (dose: 150.0 mg/kg/injection, schedule: Q01DX005 (ip), vehicle: saline): 187 % of control
- T/C [4]: 185 % of control and 214 % of control
- T/C [5]: 110 % of control
- T/C [6]: 88 % of control

Structure (SMILES): CCN(CC)CCCOc1ncnc2ccc(Cl)cc12
- T/C [1]: 98 % of control
- T/C [2]: 99 % of control
- T/C [3]: 93 % of control
- T/C [4]: 96 % of control

Structure (SMILES): O=C(O)C[N-]c1ccccc1.O=C(O)C[N-]c1ccccc1.[Ni+2]
- T/C [7]: 86 % of control
- T/C [8]: 91 % of control

Structure (SMILES): OCC1OC(n2cc(I)c3c2ncn2nnnc32)C(O)C1O (stereo unspecified)
- T/C (dose: 3.13 mg/kg/injection, schedule: Q01DX009 (ip), vehicle: water): 99 % of control
- T/C (dose: 6.25 mg/kg/injection, schedule: Q01DX009 (ip), vehicle: water): 100 % of control
- T/C (dose: 12.5 mg/kg/injection, schedule: Q01DX009 (ip), vehicle: water): 97 % of control
- T/C (dose: 25.0 mg/kg/injection, schedule: Q01DX009 (ip), vehicle: water): 97 % of control
- T/C (dose: 50.0 mg/kg/injection, schedule: Q01DX009 (ip), vehicle: water): 89 % of control

Structure (SMILES): Nc1ncnc(N)c1NC(=O)c1ccc(OCc2ccccc2)cc1
- T/C (dose: 60.0 mg/kg/injection, schedule: Q01DX005 (ip), vehicle: saline with Tween-80): 105 % of control
- T/C (dose: 120.0 mg/kg/injection, schedule: Q01DX005 (ip), vehicle: saline with Tween-80): 99 % of control
- T/C (dose: 240.0 mg/kg/injection, schedule: Q01DX005 (ip), vehicle: saline with Tween-80): 95 % of control

Structure (SMILES): O=C1c2ccccc2C(=O)N1OCc1cccc(C(F)(F)F)c1
- T/C (dose: 50.0 mg/kg/injection, schedule: Q01DX005 (ip), vehicle: Klucel (hydroxypropylcellulose) (HPC)): 98 % of control
- T/C (dose: 100.0 mg/kg/injection, schedule: Q01DX005 (ip), vehicle: Klucel (hydroxypropylcellulose) (HPC)): 90 % of control
- T/C (dose: 200.0 mg/kg/injection, schedule: Q01DX005 (ip), vehicle: Klucel (hydroxypropylcellulose) (HPC)): 86 % of control

Structure (SMILES): Cc1nc2[nH][nH]c(=O)c2nc1C
- T/C (dose: 100.0 mg/kg/injection, schedule: Q01DX009 (ip), vehicle: saline with Tween-80): 100 % of control
- T/C (dose: 100.0 mg/kg/injection, schedule: Q01DX009 (ip), vehicle: saline): 108 % of control
- T/C (dose: 200.0 mg/kg/injection, schedule: Q01DX009 (ip), vehicle: saline with Tween-80): 96 % of control
- T/C [5]: 102 % of control
- T/C (dose: 400.0 mg/kg/injection, schedule: Q01DX009 (ip), vehicle: saline with Tween-80): 94 % of control
- T/C [6]: 102 % of control
- T/C (dose: 600.0 mg/kg/injection, schedule: Q01DX009 (ip), vehicle: saline with Tween-80): 94 % of control
- T/C (dose: 600.0 mg/kg/injection, schedule: Q01DX009 (ip), vehicle: saline): 98 % of control

Structure (SMILES): Nc1nccc(Cl)n1
- T/C [7]: 98 % of control
- T/C [8]: 100 % of control
- T/C (dose: 25.0 mg/kg/injection, schedule: Q01DX009 (ip), vehicle: saline with Tween-80): 100 % of control
- T/C (dose: 50.0 mg/kg/injection, schedule: Q01DX009 (ip), vehicle: saline with Tween-80): 100 % of control

Structure (SMILES): C=CC12CN(C)C3C4COC(CC41)C1(C(=O)Nc4ccccc41)C32 (stereo unspecified)
- T/C (dose: 1.25 mg/kg/injection, schedule: Q01DX009 (ip), vehicle: saline): 103 % of control
- T/C (dose: 2.5 mg/kg/injection, schedule: Q01DX009 (ip), vehicle: saline): 88 % of control
- T/C (dose: 5.0 mg/kg/injection, schedule: Q01DX009 (ip), vehicle: saline): 95 % of control
- T/C (dose: 7.5 mg/kg/injection, schedule: Q01DX005 (ip), vehicle: Klucel (hydroxypropylcellulose) (HPC)): 98 % of control
- T/C (dose: 10.0 mg/kg/injection, schedule: Q01DX009 (ip), vehicle: saline): 106 % of control
- T/C (dose: 15.0 mg/kg/injection, schedule: Q01DX005 (ip), vehicle: Klucel (hydroxypropylcellulose) (HPC)): 95 % of control
- T/C (dose: 30.0 mg/kg/injection, schedule: Q01DX005 (ip), vehicle: Klucel (hydroxypropylcellulose) (HPC)): 98 % of control
- T/C (dose: 60.0 mg/kg/injection, schedule: Q01DX005 (ip), vehicle: Klucel (hydroxypropylcellulose) (HPC)): 102 % of control
